According to patent US20190018003A1, “TUMOR DISCRIMINATION METHOD, DIAGNOSTIC AGENT FOR TUMOR, AND SENSITIZER FOR TUMOR DIAGNOSIS” (TOTO LTD., priority 2017, published 2019):

Tests used:
Assay type in all cases: cell-based, human
[1] = test system: UM-UC-3 urinary bladder cancer cells; assay: Fluorescence enhancement in UM-UC-3 cells by separate administration of fluorescent dye (ALA) and particles, fluorescence microscope; conditions: Example 5, ALA 2 mmol/l, particles 0.001 w/v %, immediately after observation light irradiation
Procedure: UM-UC-3 cells (UMUC3, ATCC CRL-1749) were prepared. This cell line was subcultured in an E-MEM medium (ATCC-formulated Eagle's Minimum Essential Medium (ATCC), 10 v/v % FBS (Life Technologies)). The cultured cells which reached a logarithmic growth phase 3 days or 4 days later were peeled off with Trypsin/EDTA (Thermo Fisher Scientific) and, after the reaction was terminated in an E-MEM medium, centrifuged. The cell pellet obtained was suspended in an E-MEM medium. The cell suspension was subjected to measurement of cell density, inoculated onto a 6-well plate at a density of 3.6×10^4 cells/2 ml/well, and cultured for 3 days. […]
Evaluation was performed as follows. The medium of the UM-UC-3 cells on a 6-well plate, obtained in Example 3, was removed by an aspirator, and evaluation thereof was performed under conditions where PBS (−) and HBSS (−) in Example 4 were changed to the E-MEM medium and the MEM medium (no glutamine and no phenol red (Thermo Fisher Scientific), respectively, and the solution was used for detection of fluorescence.
Detection of fluorescence was performed in the same manner as in Example 4 by using an inverted fluorescence microscope (ECLIPSE Ti-E, Nikon). A fluorescence intensity was calculated by subtracting luminance corresponding to dark noise from the image acquired and thereafter obtaining average luminance of all pixels where fluorescence was acquired. […]

[2] = test system: UM-UC-3 urinary bladder cancer cells; assay: Fluorescence enhancement in UM-UC-3 cells detected by optical spectral detector (635 nm); conditions: Example 17, ALA 2 mmol/l, particles 0.001 w/v %, 405 nm excitation, 635 nm detection, immediately after light irradiation
From the text: An aqueous ALA solution (50 mmol/l) was mixed into an E-MEM medium (ATCC-formulated Eagle's Minimum Essential Medium (ATCC)) to form a 2 mmol/l ALA solution. Further, aqueous solutions of light scattering particles (2) (ii) and 3 (ii) were mixed into an E-MEM medium to respectively form a light scattering particle solution having a concentration of 0.001 w/v %.
The medium of the UM-UC-3 cells on a 6-well plate, obtained in Example 3, was removed by an aspirator, and evaluation thereof was performed under the same conditions as in Example 5 and the solution was used for detection.
Detection was performed by using an optical spectral detector (USB 2000, a small sized fiber optical spectroscope, Ocean Optics) at room temperature in a dark place. […] Fluorescence generated therefrom was passed through a collimate lens disposed on the upper surface in a 50° direction, the collimate lens having a focal distance of 10.9 mm and a numerical aperture of 0.25 (F220SMA-A, Thorlabs) and, further, through an optical fiber (M59L01, Thorlabs) of φ=1 mm and a numerical aperture of 0.5, and was detected by the above optical spectral detector. […] And, by obtaining a difference in each measurement sample by subtracting the background intensity value from an intensity value of the measurement sample at a wavelength of 635 nm, the fluorescence detection intensity was calculated. […]

[3] = test system: WI-38 immortalized normal cells; assay: Discrimination test, fluorescence in WI-38 immortalized normal cells after ALA and particles (separate plates); conditions: Example 10; WI-38 cell line; ALA 2 mmol/l, particles 0.001 w/v %
Procedure: Immortalized cell line WI-38 cells (WI-38 VA13 sub 2 RA, JCRB9057) of normal diploid fibroblast cell line WI-38 were prepared. This cell line was subcultured in an MEM medium (MEM, GlutaMAX™ supplement (Thermo Fisher Scientific), 10 v/v % FBS (Thermo Fischer Scientific)). The cultured cells which reached a logarithmic growth phase 3 days or 4 days later were peeled off with Trypsin/EDTA (Thermo Fisher Scientific) and, after the reaction was terminated in an MEM medium, centrifuged. The cell pellet obtained was suspended in an MEM medium. The cell suspension was subjected to measurement of cell density, inoculated onto a 6-well plate at a density of 5.0×10^4 cells/2 ml/well, and cultured for 3 days.
An aqueous ALA solution (50 mmol/l) was mixed into an MEM medium (MEM, GlutaMAX™ supplement (Thermo Fisher Scientific)) to form a 2 mmol/l ALA solution. Further, an aqueous solution of light scattering particles (2) (ii) was mixed into an MEM medium to form a 0.001 w/v % light scattering particle solution.
The media of the T24 cells and the WI-38 cells on 6-well plates, obtained in Example 3, were respectively removed by an aspirator, and detection was performed in the same manner as in Example 4, and relative fluorescence intensities were calculated.

NCC(=O)CCC(=O)O [fluorescent dye, 5-aminolevulinic acid]
Relative fluorescence intensity [1]: 1.0 | Relative detected fluorescence intensity [2]: 1.0 | Relative fluorescence intensity [3]: 0.7
